The subject of test [1] is AKT protein phosphorylated on serine 473 (P-AKT-S473) in PC3 human prostate carcinoma cells. Kind of test: pAKT expression in PC3 human prostate carcinoma cells measured by MSD Multi-spot Biomarker detection (test B). The note with it: MSD sandwich immunoassay, 1 to 2 h incubation, absolute IC50. Type of test: cell-based. The protocol: The inhibitory activity of the molecules on AKT phosphorylation is measured either by western blotting using the technique described below, or by the MSD Multi-spot Biomarker detection technique from Meso Scale Discovery also described below.
Study of pAKT Expression in PC3 Human Prostate Carcinoma Cells Measured by the MSD Multi-Spot Biomarker Detection Technique from Meso Scale Discovery (Test B):
This test is based on measuring the expression of the AKT protein phosphorylated on serine 473 (P-AKT-S473), in the PC3 human prostate carcinoma line, by means of the technique based on a sandwich immunoassay using the MSD Multi-spot Biomarker Detection kit from Meso Scale Discovery: phospho-Akt (Ser473) whole cell lysate kit (#K151CAD) or phospho-Akt (Ser473)/Total Akt whole cell lysate kit (#K151OOD). The primary antibody specific for P-AKT-S473 (Kit #K151CAD) is coated onto an electrode in each well of the 96-well plates of the MSD kit: after the addition of a protein lysate to each well, the signal is visualised by adding a secondary detection antibody labelled with an electrochemoluminescent compound. The procedure followed is that described in the kit.
On day 1, the PC3 cells are seeded into 96-well plates (TPP, #92096) at the concentration of 35 000 cells/well in 200 μl of DMEM medium (DMEM Gibco #11960-044) containing 10% of foetal calf serum (FCS Gibco, #10500-056) and 1% glutamine (L-Glu Gibco #25030-024), and incubated at 37° C., 5% CO2, overnight.
On day 2, the cells are incubated in the presence or absence of the test products for 1 to 2 h at 37° C. in the presence of 5% of CO2. The molecules, diluted in dimethyl sulphoxide (DMSO Sigma #D2650), are added from a 20-times concentrated stock solution, the final percentage of DMSO being 0.1%. The molecules are tested either at a single concentration of less than or equal to 10 μM, or at increasing concentrations in a range that can extend from less than 1 nM to 10 μM.
After this incubation, the cells are lysed for the preparation of the proteins. For this, after the culture medium has been drawn off, 50 μl of complete Tris Lysis Buffer of the MSD kit containing the protease and phosphatase inhibitor solutions are added to the wells and the cells are lysed for 1 h at 4° C. with shaking. At this stage, the plates containing the lysates can be stored at −20° C. or at −80° C.
The wells of the 96-well plates of the MSD kit are saturated for 1 h at ambient temperature with the blocking solution of the MSD kit. Four washes are carried out with 150 μl of Tris Wash Buffer of the MSD kit. The lysates previously prepared are transferred into the 96-well multi-spot plates of the MSD kit and incubated for 1 h at ambient temperature, with shaking. Four washes are carried out with 150 μl of Tris Wash Buffer of the MSD kit. 25 μl of the MSD sulfo-tag detection antibody solution are added to the wells and incubated for 1 h at ambient temperature, with shaking. Four washes are carried out with 150 μl of Tris Wash Buffer of the MSD kit. 150 μl of Read Buffer of the MSD kit are added to the wells and the plates are read immediately on the S12400 instrument from Meso Scale Discovery.
The instrument measures a signal for each well. Wells without cells and containing the lysis buffer serve to determine the background noise that will be subtracted from all the measurements (min). The wells containing cells in the absence of product and in the presence of 0.1% DMSO are considered to be the 100% signal (max). The percentage inhibition is calculated for each concentration of test product according to the following formula: (1-((test−min)/(max−min)))×100.
The activity of the product is translated to IC50, obtained from a dose-response curve of the various concentrations tested and representing the dose giving 50% specific inhibition (absolute IC50). 2 independent experiments make it possible to calculate the mean of the IC50 values.

Test [2] concerns translocation of the LC3 protein in Hela GFP-LC3 cells. Kind of test: Translocation of the LC3 protein in Hela human cells measured by image analysis cytometry (test C, autophagy). Type of test: cell-based. Particulars: EBSS + 10 μM hydroxychloroquine, cells with LC3 granulations, absolute IC50. The protocol: Inhibitory activity of the molecules on autophagy is measured by means of the translocation of the LC3 protein from the cytoplasm to the autophagosomes. For this, Hela cells were transfected with a vector encoding the chimeric protein GFP-LC3. A Hela clone stably expressing the GFP-LC3 protein was selected.
Study of the Translocation of the LC3 Protein in Hela Human Cells, Measured by Image Analysis Cytometry (Test C):
On day 1, the Hela GFP-LC3 cells are seeded into 96-well plates coated with poly-D-lysine (Greiner, #655946) at the concentration of 15000 cells/well in 200 μl of DMEM medium (DMEM Gibco #11960-044) containing 10% of foetal calf serum (FCS Gibco, #10500-056) and 1% glutamine (L-Glu Gibco #25030-024), and incubated at 37° C., 5% CO2, overnight.
On day 2, the cells are washed twice with EBSS (Sigma #E3024). The cells are then incubated in EBSS, 10 μM hydroxychloroquine and test products, for 2 hours at 37° C. in the presence of 5% CO2. The molecules are diluted in dimethyl sulphoxide (DMSO Sigma #D2650), the final DMSO percentage being 0.1%. The molecules are tested at increasing concentrations in a range that can extend from 10 nM to 1 μM.
After this incubation, the cells are fixed with 4% paraformaldehyde (Sigma #HT501128 4L) for 10 min. The cells are then washed twice with PBS and the nuclei then stained with 2 μg/ml of Hoechst 33342 (Invitrogen #H3570). The 96-well plates are then read with the iCyte image analysis cytometer (Compucyte).
The activity of the product is translated to IC50, obtained from a dose-response curve of various concentrations tested and representing the dose giving 50% specific inhibition (absolute IC50). 2 independent experiments make it possible to calculate the mean of the IC50 values.

[3] abbreviates: Homo sapiens, PC-3, P-AKT-S473, PC3 cells.

What is called IC50 is the concentration at which inhibition is half-maximal. Take `C[C@@]1(C(F)(F)F)Cn2c(nc(N3CCOCC3)cc2=O)N1Cc1c[nH]c2ccccc12` [Example 33, (2S)-1-(1H-indol-3-ylmethyl)-2-methyl-7-(morpholin-4-yl)-2-(trifluoromethyl)-2,3-dihydroimidazo[1,2-a]pyrimidin-5(1H)-one]: the IC50 in test [1] (setting [3]) stood at 42 nM; in test [2] (Homo sapiens, HeLa, 2 h), 461 nM.

Regarding `CC(c1ccccc1)N1c2nc(N3CCOCC3)cc(=O)n2C[C@@]1(C)C(F)(F)F` (single isomer, unassigned) [Example 32, (2S)-2-Methyl-7-(morpholin-4-yl)-1-[(1R or 1S)-1-phenylethyl]-2-(trifluoromethyl)-2,3-dihydroimidazo[1,2-a]pyrimidin-5(1H)-one], the IC50 is 22 nM in test [1] (P-AKT-S473, PC3 cells) and greater than 1000 nM in test [2] (2 hours).

As for `C[C@@]1(C(F)(F)F)Cn2c(nc(N3CCOCC3)cc2=O)N1C(=O)c1ccccc1` [Example 21, (2S)-2-Methyl-7-(morpholin-4-yl)-1-(phenylcarbonyl)-2-(trifluoromethyl)-2,3-dihydroimidazo[1,2-a]pyrimidin-5(1H)-one], the IC50 was 7 nM in test [1] (setting [3]) and greater than 1000 nM in test [2] (Homo sapiens, HeLa, 2 h).

Regarding `C[C@@]1(C(F)(F)F)Cn2c(nc(N3CCOCC3)c(F)c2=O)N1Cc1ccccc1` [Example 19, (2S)-1-Benzyl-6-fluoro-2-methyl-7-(morpholin-4-yl)-2-(trifluoromethyl)-2,3-dihydroimidazo[1,2-a]pyrimidin-5(1H)-one], the IC50 was found to be 26 nM in test [1] (setting [3]) and 425 nM in test [2] (Homo sapiens, HeLa, 2 h).

Regarding `CC(c1ccccc1F)N1c2nc(N3CCOCC3)cc(=O)n2C[C@@]1(C)C(F)(F)F` (single isomer, unassigned) [Example 37, (2S)-1-[(1R or 1S)-1-(2-Fluorophenyl)ethyl]-2-methyl-7-(morpholin-4-yl)-2-(trifluoromethyl)-2,3-dihydroimidazo[1,2-a]pyrimidin-5(1H)-one], the IC50 amounted to 19 nM in test [1] (P-AKT-S473, PC3 cells) and 737 nM in test [2] (2 hours).

As to `C[C@@]1(C(F)(F)F)Cn2c(nc(N3CCOCC3)cc2=O)N1Cc1csc2ccc(Cl)cc12` [Example 20, (2S)-1-[(5-Chloro-1-benzothiophen-3-yl)methyl]-2-methyl-7-(morpholin-4-yl)-2-(trifluoromethyl)-2,3-dihydroimidazo[1,2-a]pyrimidin-5(1H)-one], the IC50 in test [1] (setting [3]) amounted to 18 nM; in test [2] (Homo sapiens, HeLa, 2 h), 703 nM.

In the case of `C[C@@]1(C(F)(F)F)Cn2c(nc(N3CCOCC3)cc2=O)N1Cc1nc2ccccc2o1` [Example 30, (2S)-1-(1,3-Benzoxazol-2-ylmethyl)-2-methyl-7-(morpholin-4-yl)-2-(trifluoromethyl)-2,3-dihydroimidazo[1,2-a]pyrimidin-5(1H)-one], the IC50 in test [1] (setting [3]) is 89 nM; in test [2] (Homo sapiens, HeLa, 2 h) it was greater than 1000 nM.

On to `C[C@@]1(C(F)(F)F)Cn2c(nc(N3CCOCC3)cc2=O)N1Cc1cccc(F)c1F` [Example 25, (2S)-1-(2,3-Difluorobenzyl)-2-methyl-7-(morpholin-4-yl)-2-(trifluoromethyl)-2,3-dihydroimidazo[1,2-a]pyrimidin-5(1H)-one], for which the IC50 was found to be 28 nM in test [1] (setting [3]) and 621 nM in test [2] (Homo sapiens, HeLa, 2 h).

For the molecule `CC(c1ccccc1F)N1c2nc(N3CCOCC3)cc(=O)n2C[C@@]1(C)C(F)(F)F` (single isomer, unassigned) [Example 36, (2S)-1-[(1R or 1S)-1-(2-Fluorophenyl)ethyl]-2-methyl-7-(morpholin-4-yl)-2-(trifluoromethyl)-2,3-dihydroimidazo[1,2-a]pyrimidin-5(1H)-one], the IC50 is 4 nM in test [1] (P-AKT-S473, PC3 cells) and 995 nM in test [2] (Homo sapiens, HeLa, 2 h).

Regarding `C[C@@]1(C(F)(F)F)Cn2c(nc(N3CCOCC3)cc2=O)N1Cc1ccc(F)c(Br)c1` [Example 24, (2S)-1-(3-Bromo-4-fluorobenzyl)-2-methyl-7-(morpholin-4-yl)-2-(trifluoromethyl)-2,3-dihydroimidazo[1,2-a]pyrimidin-5(1H)-one], the IC50 in test [1] (setting [3]) was determined as 13 nM; in test [2] (Homo sapiens, HeLa, 2 h), 314 nM.

As to `CC(c1cccc(F)c1)N1c2nc(N3CCOCC3)cc(=O)n2C[C@@]1(C)C(F)(F)F` (single isomer, unassigned) [Example 22, (2S)-1-[(1R or 1S)-1-(3-Fluorophenyl)ethyl]-2-methyl-7-(morpholin-4-yl)-2-(trifluoromethyl)-2,3-dihydroimidazo[1,2-a]pyrimidin-5(1H)-one], the IC50 in test [1] (setting [3]) worked out at 59 nM; in test [2] (Homo sapiens, HeLa, 2 h), 872 nM.

As to `CC(c1ccccc1)N1c2nc(N3CCOCC3)cc(=O)n2C[C@@]1(C)C(F)(F)F` (single isomer, unassigned) [Example 31, (2S)-2-Methyl-7-(morpholin-4-yl)-1-[(1R or 1S)-1-phenylethyl]-2-(trifluoromethyl)-2,3-dihydroimidazo[1,2-a]pyrimidin-5(1H)-one], the IC50 in test [1] (P-AKT-S473, PC3 cells) is 60 nM; in test [2] (2 hours) it was 334 nM.

In test [1] (setting [3]), `C[C@@]1(C(F)(F)F)Cn2c(nc(N3CCOCC3)cc2=O)N1C(=O)c1ccccc1Cl` [Example 34, (2S)-1-[(2-chlorophenyl)carbonyl]-2-methyl-7-(morpholin-4-yl)-2-(trifluoromethyl)-2,3-dihydroimidazo[1,2-a]pyrimidin-5(1H)-one] gave an IC50 of 159 nM.

Consider `Cc1ccccc1C(=O)N1c2nc(N3CCOCC3)cc(=O)n2C[C@@]1(C)C(F)(F)F` [Example 35, (2S)-2-Methyl-1-[(2-methylphenyl)carbonyl]-7-(morpholin-4-yl)-2-(trifluoromethyl)-2,3-dihydroimidazo[1,2-a]pyrimidin-5(1H)-one], for which the IC50 was 32 nM in test [1] (setting [3]) and greater than 1000 nM in test [2] (Homo sapiens, HeLa, 2 h).

The record behind these values is patent publication US8828997B2, “2,3-dihydro-1H-imidazo(1,2-a)pyrimidin-5-one derivatives, preparation thereof, and pharmaceutical use thereof” (Sanofi, priority 2009, dated 2014).
